# System: rat smooth muscle cells
# Assay: Serum-stimulated rat smooth muscle cell proliferation (BrdU incorporation)
# Assay type: cell-based
# Conditions: for % cell proliferation: no ribozyme; for augmentation of ribozyme inhibition of smooth muscle cell proliferation: 0.2 μM ribozyme 575 12/12 complexed with DMRIE/DOPE at 1:1 charge ratio
# Procedure: The ribozymes that cleaved c-myb RNA described above were assayed for their effect on smooth muscle cell proliferation. Rat vascular smooth muscle cells were isolated and cultured as follows. Aortas from adult Sprague-Dawley rats were dissected, connective tissue was removed under a dissecting microscope, and 1 mm^2 pieces of the vessel were placed, intimal side up, in a Petri dish in Modified Eagle's Medium (MEM) with the following additives: 10% FBS, 2% tryptose phosphate broth, 1% penicillin/streptomycin and 2 mM L-Glutamine. The smooth muscle cells were allowed to migrate and grow to confluence over a 3-4 week period. These primary cells were frozen and subsequent passages were grown at 37° C. in 5% CO2 in Dulbecco's modified Eagle's medium (DMEM), 10% fetal bovine serum (FBS), and the following additives: 2 mM L-Glutamine, 1% penicillin/streptomycin, 1 mM sodium pyruvate, non-essential amino acids (0.1 mM of each amino acid), and 20 mM Hepes pH 7.4. Cells passed four to six times were used in proliferation assays. For the cell proliferation assays, 24-well tissue culture plates were prepared by coating the wells with 0.2% gelatin and washing once with phosphate-buffered saline (PBS). RASMC were inoculated at 1×10^4 cells per well in 1 ml of DMEM plus 10% FBS and additives and incubated for 24 hours. The cells were subconfluent when plated at this density. The cells were serum-starved by removing the medium, washing once with PBS, and incubating 48-72 hours in DMEM containing 0.5% FBS plus additives.
# Serum-starved smooth muscle cells were washed twice with PBS, and the RNA/lipid complex was added. The plates were incubated for 4 hours at 37° C. The medium was then removed and DMEM containing 10% FBS, additives and 10 μM bromodeoxyuridine (BrdU) was added. In some wells, FBS was omitted to determine the baseline of unstimulated proliferation. The plates were incubated at 37° C. for 20-24 hours, fixed with 0.3% H2 O2 in 100% methanol, and stained for BrdU incorporation by standard methods. In this procedure, cells that have proliferated and incorporated BrdU stain brown; non-proliferating cells are counter-staineda light purple. Both BrdU positive and BrdU negative cells were counted under the microscope. 300-600 total cells per well were counted. In the following experiments, the percentage of the total cells that have incorporated BrdU (% cell proliferation) is presented. […] Percent inhibition then is calculated from the % cell proliferation values as follows: % inhibition=100-100((Ribozyme-0% serum)/(Control-0% serum)).
# These include, but are not limited to, ammonium chloride, carbonyl cyanide p-trifluoromethoxy phenyl hydrazone (FCCP), chloroquine, monensin, colchicine, and viral particles (Cotten, M. et al., 1990, Proc. Natl. Acad. Sci. USA, 87, 4033-4037; Cotten, M. et al., 1993, J. Virol., 67, 3777-3785; Cotten, M. et al., 1992, Proc. Natl. Acad. Sci USA, 89, 6094-6098; Cristiano, R. J. et al., 1993, Proc. Natl. Acad. Sci. U S A, 90, 2122-6; Cudel, D. T. et al., 1991, Proc. Nat. Acad. Sci., USA, 88, 8850-8854; Ege, T. et al., 1984, Exp. Cell Res., 155, 9-16; Harris, C. E. et al., 1993, Am. J. Respir. Cell Mol. Biol., 9, 441-7; Seth, P. et al., 1994, J. Virol., 68, 933-40; Zenke, M. et al., 1990, Proc. Natl. Acad. Sci. USA, 87, 3655-3659). […] To determine whether such agents may augment the functional delivery of RNA and ribozymes to smooth muscle cells, the effects of chloroquine on ribozyme inhibition of smooth muscle cell proliferation were assessed. […]
compound,measurement,setting,value
CCN(CC)CCCC(C)Nc1ccnc2cc(Cl)ccc12 (centres unmarked) [chloroquine],% cell proliferation,"10 μM chloroquine added upon stimulation, stimulation with 10% serum",80.5±1.5%
same,augmentation of ribozyme inhibition of smooth muscle cell proliferation,10 μM chloroquine,two- to three-fold
same,augmentation of ribozyme inhibition of smooth muscle cell proliferation,"10 μM chloroquine, listed as Chloroquine",2- to 3 fold
same,effect of chloroquine on untreated cells (proliferation),"10 μM chloroquine, cells without ribozyme",no effect
same,% cell proliferation,"10 μM chloroquine, unstimulated cells",7±0.5%

# — patent US5646042A, “C-myb targeted ribozymes” (Ribozyme Pharmaceuticals, Inc., priority 1995, dated 1997)
